# Measured values taken from patent US20210403975A1, “PHENOTYPIC ANTIMICROBIAL SUSCEPTIBILITY PROFILING OF UNIDENTIFIED PATHOGENS DIRECTLY FROM PATIENT SAMPLES” (GeneFluidics, Inc., priority 2020, published 2021).
# Read-outs that look alike come from different tables or passages of the source.
# Experiments:
# P. aeruginosa ATCC 27853 = test: MIC of the strain used in the gentamicin/meropenem checkerboard; assay type: cell-based; settings: P. aeruginosa ATCC 27853, FIG. 6A legend
# Experimental: FIG. 6A-C presents a (A) P. aeruginosa ATCC 27853 5×5 checkerboard with gentamicin (MIC: 1 μg/mL) and meropenem (MIC: 0.5 μg/mL). Assay results after 3.5 hours of incubation at 37° C. (B) A 3×3 checkerboard of gentamicin and meropenem on the same P. aeruginosa strain. (C) An exemplary embodiment of a 96-well checkerboard plate for 66 combinations. ABX are gray-scaled with different intensities to represent different concentrations.
# The disclosure provides for the establishment and validation of an automated protocol to assess combinations of two or more antimicrobials to assess antimicrobial susceptibility directly from pediatric patients' specimens during an emergency or unprecedented pandemic. The direct-from-specimen AST protocols discussed above are expanded into a 96-well plate-based checkerboard test to assess 66 preselected combinations of 25 antibiotics as illustrated in FIG. 6C.
# CDC69 (resistant strain) = test: Direct-from-specimen AST, GC ratio trend over increasing meropenem concentrations; assay type: cell-based; settings: CDC 69; 4-hour antibiotic exposure; meropenem 1 to 64 μg/mL; agrees with CDC AR Bank MIC
# From the text: (§1) The direct-from-specimen AST disclosed herein will start with various types of specimens with an unknown concentration of pathogens, from 0 to >10^8 CFU/mL. In order to determine the minimum assay time needed for quantification of RNA transcription at different levels of pathogen concentration, a correlation between the limit of detection (LOD) of the current molecular analysis platform (see FIG. 3 steps 1-17) with the assay turnaround time (TAT) was established (see FIG. 4). […] Target pathogen enrichment and matrix component removal can be carried out by the built-in centrifugal module to achieve lower target LODs with TAT of 42 minutes to 110 minutes. For low-abundance pathogens and early infection diagnostics, additional viability culture steps with TAT of 240 minutes to 330 minutes can be included to achieve an LOD of <10 CFU/mL. The direct-from-specimen AST method disclosed herein will encompass these assay parameters. […] Semi-automatic AST tests directly from whole blood and urine contrived samples were evaluated in FIG. 5 A-C. […]
# (§2) Direct-from-specimen AST Analytical Validation Protocol: (1) The user loads the specimen collection tube into the system, which then (2) scans the bar code to determine specimen type. […] The system incubates enzyme, then performs electrochemical reading and (10) AST reporting.
# [1] = tested on: CDC77 (susceptible strain); test: as above; assay type: cell-based; settings: 4-hour antibiotic exposure, meropenem 1 to 64 μg/mL, agrees with CDC AR Bank MIC
# From the text: as §1, §2
# [2] = tested on: CDC Enterobacter cloacae (EbC) 545; settings: CDC EbC 545; cited from earlier work
# [3] = tested on: CDC Proteus mirabilis (PM) 29; settings: CDC PM 29; cited from earlier work
# [4] = tested on: Klebsiella pneumoniae (KP) 138; settings: cited from earlier work
# CDC 349 E. coli = settings: cited from earlier work
# KP 525 [5] = settings: cited from earlier work
# CDC KP 522 [6] = settings: cited from earlier work
# [7] = tested on: CDC Proteus mirabilis (PM) 29; test: Preliminary accelerated colistin AST, 2 hours drug-bug exposure; assay type: cell-based; settings: CDC PM 29; 2 hours exposure
# From the text: (§3) Direct-from-specimen of HR approach. HR is a poorly characterized phenomenon and the lack of consensus-based standards further complicates the study of antibiotic resistance. In addition, its clinical relevance is uncertain due to a lack of a standardized procedure to be implemented into the current workflow in clinical microbiology laboratories. […] FIG. 8C is the HR testing on the system.
# [8] = tested on: Klebsiella pneumoniae (KP) 138; test: as above; assay type: cell-based; settings: 2 hours CST exposure in stripwell, FIG. 8A
# From the text: as §3
# [9] = tested on: CDC Enterobacter cloacae (EbC) 545; test: as above; assay type: cell-based; settings: 2 hours CST exposure in stripwell, FIG. 8A
# From the text: as §3
# KP 525 [10] = test: as above; assay type: cell-based, Klebsiella pneumoniae; settings: colistin 0.25-8 μg/mL, 2 hours exposure
# From the text: as §3
# CDC KP 522 [11] = test: as above; assay type: cell-based, Klebsiella pneumoniae; settings: colistin 0.25-8 μg/mL, 2 hours exposure
# From the text: as §3
molecule,measurement,setting,value
C[C@@H](O)[C@H]1C(=O)N2C(C(=O)O)=C(S[C@@H]3CN[C@H](C(=O)N(C)C)C3)[C@H](C)[C@H]12 [meropenem],MIC,"P. aeruginosa ATCC 27853; Pseudomonas aeruginosa, ATCC27853, read-out: MIC",0.5 mg/L
same,MIC reported from trend of GC ratio,CDC69 (resistant strain),8 mg/L
same,MIC reported from trend of GC ratio,[1],< 1 mg/L
colistin,MIC,[2],≤ 0.25 mg/L
same,MIC (listed),[3],> 4 mg/L
same,MIC,[4],2 mg/L
same,MIC,CDC 349 E. coli,2 to 4 mg/L
same,MIC,KP 525 [5],> 8 mg/L
same,MIC,CDC KP 522 [6],> 8 mg/L
same,susceptibility to colistin relative to other strains tested,[7],least susceptible
same,growth response to colistin exposure,[8],clear inhibited growth
same,growth response to colistin exposure,[9],clear inhibited growth
same,growth response to colistin exposure,KP 525 [10],not affected
same,growth response to colistin exposure,CDC KP 522 [11],not affected
gentamicin,MIC,P. aeruginosa ATCC 27853,1 mg/L
